{"source": "ChEMBL document CHEMBL1201862", "about": "“PubChem BioAssay data set” (2004)", "key": {"[1]": {"experiment": "viability of PTEN-deleted HCT116 cells – cell-based, HCT116 PTEN knockout, dose response (AID 1047);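 also: HCT116 colon tumor cells with PTEN knocked out; cells exposed to compound for 60 hours before readout; potency for loss of cell viability measured by luminescence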", "assay_type": "functional"}, "[2]": {"molecular_target": "Scavenger receptor class B member 1 (Mus musculus, UniProt Q61009)", "experiment": "mouse SR-BI DiI-HDL uptake blockers – ldlA[mSR-BI] cells, fluorescence, cherry pick, dose response (AID 493194);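 also: cellular uptake of fluorescent DiI-labeled HDL measured as cell fluorescence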", "assay_type": "functional, cell-based"}, "[3]": {"experiment": "viability of HCT116 lacking mutant beta-catenin – cell-based, human colon tumor, dose response (AID 1045);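 also: HCT116 colon tumor cells with beta catenin knocked out; cells exposed to compound for 60 hours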", "assay_type": "functional"}, "[4]": {"molecular_target": "Glutathione S-transferase omega-1 (Homo sapiens, UniProt P78417)", "sequence (P78417 whole entry)": "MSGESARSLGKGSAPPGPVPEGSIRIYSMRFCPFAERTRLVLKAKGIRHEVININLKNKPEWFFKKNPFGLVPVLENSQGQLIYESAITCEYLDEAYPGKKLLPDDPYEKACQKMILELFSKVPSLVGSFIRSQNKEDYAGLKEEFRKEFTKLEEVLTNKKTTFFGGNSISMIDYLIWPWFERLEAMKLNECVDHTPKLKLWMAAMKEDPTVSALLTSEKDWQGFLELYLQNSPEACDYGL", "experiment": "IC50 of human GSTO1 blockade by gel ABPP – biochemical, SE-Rh probe, in-gel fluorescence, powder samples, set 2, late-stage follow-up (AID 463142)", "assay_type": "functional"}, "[5]": {"molecular_target": "T1, Histone-lysine N-methyltransferase NSD2 (Homo sapiens, UniProt O96028)", "T1 sequence (O96028 whole entry)": "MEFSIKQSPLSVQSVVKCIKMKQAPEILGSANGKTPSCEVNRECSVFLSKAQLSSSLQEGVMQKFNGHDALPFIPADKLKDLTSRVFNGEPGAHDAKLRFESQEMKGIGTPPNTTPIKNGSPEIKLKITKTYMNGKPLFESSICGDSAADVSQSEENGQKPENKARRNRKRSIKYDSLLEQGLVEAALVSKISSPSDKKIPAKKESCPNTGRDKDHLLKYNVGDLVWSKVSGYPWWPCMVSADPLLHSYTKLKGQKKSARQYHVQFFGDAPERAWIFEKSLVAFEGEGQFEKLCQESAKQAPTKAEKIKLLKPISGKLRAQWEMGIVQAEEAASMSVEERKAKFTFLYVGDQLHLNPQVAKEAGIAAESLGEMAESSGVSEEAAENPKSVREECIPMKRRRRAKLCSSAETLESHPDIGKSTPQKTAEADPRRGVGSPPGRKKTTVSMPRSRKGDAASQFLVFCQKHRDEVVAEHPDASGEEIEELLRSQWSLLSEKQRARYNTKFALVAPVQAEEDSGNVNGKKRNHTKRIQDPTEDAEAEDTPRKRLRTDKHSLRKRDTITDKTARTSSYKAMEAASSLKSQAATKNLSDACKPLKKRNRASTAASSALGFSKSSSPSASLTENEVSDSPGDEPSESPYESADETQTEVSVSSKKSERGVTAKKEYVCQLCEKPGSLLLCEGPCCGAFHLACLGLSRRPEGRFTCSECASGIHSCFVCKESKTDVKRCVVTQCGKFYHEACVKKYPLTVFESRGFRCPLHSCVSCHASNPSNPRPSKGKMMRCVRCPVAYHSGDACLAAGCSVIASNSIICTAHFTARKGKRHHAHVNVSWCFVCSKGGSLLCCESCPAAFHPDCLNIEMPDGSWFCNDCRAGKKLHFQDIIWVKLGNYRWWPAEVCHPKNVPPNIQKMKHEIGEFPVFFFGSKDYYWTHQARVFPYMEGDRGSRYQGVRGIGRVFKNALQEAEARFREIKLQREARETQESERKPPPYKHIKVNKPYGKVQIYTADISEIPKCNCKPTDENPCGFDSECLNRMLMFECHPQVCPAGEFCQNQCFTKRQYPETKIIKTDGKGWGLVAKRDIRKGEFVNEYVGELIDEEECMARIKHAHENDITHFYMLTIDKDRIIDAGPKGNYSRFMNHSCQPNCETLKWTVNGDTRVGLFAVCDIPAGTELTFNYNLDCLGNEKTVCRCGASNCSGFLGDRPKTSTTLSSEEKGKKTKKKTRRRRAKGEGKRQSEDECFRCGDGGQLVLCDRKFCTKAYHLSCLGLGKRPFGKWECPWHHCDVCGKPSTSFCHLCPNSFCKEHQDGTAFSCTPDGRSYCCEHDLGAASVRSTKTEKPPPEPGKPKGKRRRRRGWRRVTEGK", "assay_type": "biochemical"}, "[6]": {"molecular_target": "T2, Carboxy-terminal domain RNA polymerase II polypeptide A small phosphatase 1 (Homo sapiens, UniProt Q9GZU7)", "T2 sequence (Q9GZU7 whole entry)": "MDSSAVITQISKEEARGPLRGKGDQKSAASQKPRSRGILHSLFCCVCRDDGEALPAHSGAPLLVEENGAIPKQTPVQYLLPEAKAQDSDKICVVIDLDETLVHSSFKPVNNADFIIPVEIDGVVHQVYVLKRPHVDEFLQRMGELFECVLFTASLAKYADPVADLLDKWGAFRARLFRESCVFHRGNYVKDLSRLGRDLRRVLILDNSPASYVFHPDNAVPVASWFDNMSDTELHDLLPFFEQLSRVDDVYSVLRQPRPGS", "experiment": "CTDSP1 inhibitors, concentration-response, biochemical, absorbance readout, ultra-high-throughput screen actives (AID 540297)", "assay_type": "functional"}, "[7]": {"molecular_target": "Bifunctional protein GlmU (Mycobacterium tuberculosis, UniProt P9WMN3)", "experiment": "Inhibitors of Mycobacterial Glucosamine-1-phosphate acetyl transferase (GlmU). Secondary screen.", "set-up": "species or system Mycobacterium tuberculosis H37Rv"}, "[8]": {"molecular_target": "Bcl-2-like protein 10 (Homo sapiens, UniProt Q9HD36)", "experiment": "Bcl-B/TR3 peptide binding disruption – biochemical, fluorescence polarization, FITC-TR3 peptide, selectivity assay for Bfl-1 inhibitor project, primary screen (AID 748);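 also: fluorescence polarization from a fluorescein-labelled TR3 peptide binding purified Bcl-B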"}, "[9]": {"molecular_target": "ORF 73 (Human herpesvirus 8, UniProt O40947)", "sequence (O40947 whole entry)": "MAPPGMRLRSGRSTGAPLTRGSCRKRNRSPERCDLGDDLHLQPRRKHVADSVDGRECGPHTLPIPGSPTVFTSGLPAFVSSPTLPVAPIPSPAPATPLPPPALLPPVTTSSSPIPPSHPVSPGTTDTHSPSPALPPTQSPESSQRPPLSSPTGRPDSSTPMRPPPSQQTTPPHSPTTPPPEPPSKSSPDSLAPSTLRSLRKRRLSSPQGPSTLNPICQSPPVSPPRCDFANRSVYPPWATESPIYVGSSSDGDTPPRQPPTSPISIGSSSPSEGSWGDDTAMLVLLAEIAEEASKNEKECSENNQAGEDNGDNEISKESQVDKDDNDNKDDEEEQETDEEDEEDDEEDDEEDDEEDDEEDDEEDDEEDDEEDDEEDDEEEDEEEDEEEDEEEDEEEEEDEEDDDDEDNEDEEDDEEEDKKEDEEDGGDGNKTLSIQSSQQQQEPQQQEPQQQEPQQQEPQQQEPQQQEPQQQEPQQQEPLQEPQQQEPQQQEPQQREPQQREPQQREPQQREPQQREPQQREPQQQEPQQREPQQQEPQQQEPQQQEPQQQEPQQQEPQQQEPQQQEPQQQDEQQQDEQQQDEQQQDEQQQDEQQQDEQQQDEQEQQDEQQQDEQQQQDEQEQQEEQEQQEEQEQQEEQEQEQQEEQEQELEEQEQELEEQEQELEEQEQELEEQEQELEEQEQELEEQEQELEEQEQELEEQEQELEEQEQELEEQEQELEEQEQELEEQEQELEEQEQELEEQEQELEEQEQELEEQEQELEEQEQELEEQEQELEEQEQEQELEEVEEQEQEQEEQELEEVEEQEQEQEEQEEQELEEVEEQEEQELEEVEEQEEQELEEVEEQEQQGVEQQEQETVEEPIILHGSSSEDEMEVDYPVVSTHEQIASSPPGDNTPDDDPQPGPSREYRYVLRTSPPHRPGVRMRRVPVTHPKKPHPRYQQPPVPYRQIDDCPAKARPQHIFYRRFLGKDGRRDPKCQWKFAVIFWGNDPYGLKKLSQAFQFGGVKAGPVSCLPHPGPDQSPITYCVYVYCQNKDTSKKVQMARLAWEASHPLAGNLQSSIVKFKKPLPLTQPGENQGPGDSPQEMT", "experiment": "KSHV LANA DNA-binding disruption – biochemical, fluorescence polarization, cherry-picked samples, dose response (AID 504725);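 also: fluorescence polarization of a labeled DNA duplex reporting LANA DNA binding; potency is for inhibitors that block LANA binding to the DNA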", "set-up": "species or system Human gammaherpesvirus 8"}, "[10]": {"molecular_target": "Protein phosphatase methylesterase 1 (Homo sapiens, UniProt Q9Y570)", "experiment": "endogenous PME-1 and serine hydrolase inhibition – cell lysate, mouse brain cytosol, FP-rhodamine, gel ABPP, selectivity assay for PME-1 inhibitor project, dose response, panel member PME-1 Assay Panel member description: Inhibition of endogenously expressed PME-1 (AID 2366)"}, "[11]": {"molecular_target": "Glucose-6-phosphate 1-dehydrogenase (Homo sapiens, UniProt P11413)", "sequence (P11413 whole entry)": "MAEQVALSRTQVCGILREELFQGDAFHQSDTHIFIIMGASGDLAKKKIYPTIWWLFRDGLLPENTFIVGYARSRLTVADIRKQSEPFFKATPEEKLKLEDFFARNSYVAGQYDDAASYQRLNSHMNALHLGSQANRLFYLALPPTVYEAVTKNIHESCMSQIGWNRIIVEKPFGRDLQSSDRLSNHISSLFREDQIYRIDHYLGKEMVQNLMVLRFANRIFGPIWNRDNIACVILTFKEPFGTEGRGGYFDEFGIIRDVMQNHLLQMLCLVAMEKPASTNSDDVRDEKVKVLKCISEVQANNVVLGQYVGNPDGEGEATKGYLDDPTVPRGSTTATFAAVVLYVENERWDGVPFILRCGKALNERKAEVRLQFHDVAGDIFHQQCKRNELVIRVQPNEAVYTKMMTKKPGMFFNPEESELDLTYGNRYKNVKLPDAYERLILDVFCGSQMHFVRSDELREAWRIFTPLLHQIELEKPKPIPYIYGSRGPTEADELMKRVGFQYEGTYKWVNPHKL", "experiment": "inhibition of Homo sapiens G6PD, dose series – biochemical, fluorescence, selectivity assay for P. falciparum G6PD inhibitor project, dose response (AID 504792)", "assay_type": "functional"}, "[12]": {"molecular_target": "T3, Voltage-gated N-type calcium channel alpha-1B subunit/Amyloid beta A4 precursor protein-binding family A member 1 (Homo sapiens, UniProt Q00975+Q02410)", "T3 sequence (Q00975 whole entry)": "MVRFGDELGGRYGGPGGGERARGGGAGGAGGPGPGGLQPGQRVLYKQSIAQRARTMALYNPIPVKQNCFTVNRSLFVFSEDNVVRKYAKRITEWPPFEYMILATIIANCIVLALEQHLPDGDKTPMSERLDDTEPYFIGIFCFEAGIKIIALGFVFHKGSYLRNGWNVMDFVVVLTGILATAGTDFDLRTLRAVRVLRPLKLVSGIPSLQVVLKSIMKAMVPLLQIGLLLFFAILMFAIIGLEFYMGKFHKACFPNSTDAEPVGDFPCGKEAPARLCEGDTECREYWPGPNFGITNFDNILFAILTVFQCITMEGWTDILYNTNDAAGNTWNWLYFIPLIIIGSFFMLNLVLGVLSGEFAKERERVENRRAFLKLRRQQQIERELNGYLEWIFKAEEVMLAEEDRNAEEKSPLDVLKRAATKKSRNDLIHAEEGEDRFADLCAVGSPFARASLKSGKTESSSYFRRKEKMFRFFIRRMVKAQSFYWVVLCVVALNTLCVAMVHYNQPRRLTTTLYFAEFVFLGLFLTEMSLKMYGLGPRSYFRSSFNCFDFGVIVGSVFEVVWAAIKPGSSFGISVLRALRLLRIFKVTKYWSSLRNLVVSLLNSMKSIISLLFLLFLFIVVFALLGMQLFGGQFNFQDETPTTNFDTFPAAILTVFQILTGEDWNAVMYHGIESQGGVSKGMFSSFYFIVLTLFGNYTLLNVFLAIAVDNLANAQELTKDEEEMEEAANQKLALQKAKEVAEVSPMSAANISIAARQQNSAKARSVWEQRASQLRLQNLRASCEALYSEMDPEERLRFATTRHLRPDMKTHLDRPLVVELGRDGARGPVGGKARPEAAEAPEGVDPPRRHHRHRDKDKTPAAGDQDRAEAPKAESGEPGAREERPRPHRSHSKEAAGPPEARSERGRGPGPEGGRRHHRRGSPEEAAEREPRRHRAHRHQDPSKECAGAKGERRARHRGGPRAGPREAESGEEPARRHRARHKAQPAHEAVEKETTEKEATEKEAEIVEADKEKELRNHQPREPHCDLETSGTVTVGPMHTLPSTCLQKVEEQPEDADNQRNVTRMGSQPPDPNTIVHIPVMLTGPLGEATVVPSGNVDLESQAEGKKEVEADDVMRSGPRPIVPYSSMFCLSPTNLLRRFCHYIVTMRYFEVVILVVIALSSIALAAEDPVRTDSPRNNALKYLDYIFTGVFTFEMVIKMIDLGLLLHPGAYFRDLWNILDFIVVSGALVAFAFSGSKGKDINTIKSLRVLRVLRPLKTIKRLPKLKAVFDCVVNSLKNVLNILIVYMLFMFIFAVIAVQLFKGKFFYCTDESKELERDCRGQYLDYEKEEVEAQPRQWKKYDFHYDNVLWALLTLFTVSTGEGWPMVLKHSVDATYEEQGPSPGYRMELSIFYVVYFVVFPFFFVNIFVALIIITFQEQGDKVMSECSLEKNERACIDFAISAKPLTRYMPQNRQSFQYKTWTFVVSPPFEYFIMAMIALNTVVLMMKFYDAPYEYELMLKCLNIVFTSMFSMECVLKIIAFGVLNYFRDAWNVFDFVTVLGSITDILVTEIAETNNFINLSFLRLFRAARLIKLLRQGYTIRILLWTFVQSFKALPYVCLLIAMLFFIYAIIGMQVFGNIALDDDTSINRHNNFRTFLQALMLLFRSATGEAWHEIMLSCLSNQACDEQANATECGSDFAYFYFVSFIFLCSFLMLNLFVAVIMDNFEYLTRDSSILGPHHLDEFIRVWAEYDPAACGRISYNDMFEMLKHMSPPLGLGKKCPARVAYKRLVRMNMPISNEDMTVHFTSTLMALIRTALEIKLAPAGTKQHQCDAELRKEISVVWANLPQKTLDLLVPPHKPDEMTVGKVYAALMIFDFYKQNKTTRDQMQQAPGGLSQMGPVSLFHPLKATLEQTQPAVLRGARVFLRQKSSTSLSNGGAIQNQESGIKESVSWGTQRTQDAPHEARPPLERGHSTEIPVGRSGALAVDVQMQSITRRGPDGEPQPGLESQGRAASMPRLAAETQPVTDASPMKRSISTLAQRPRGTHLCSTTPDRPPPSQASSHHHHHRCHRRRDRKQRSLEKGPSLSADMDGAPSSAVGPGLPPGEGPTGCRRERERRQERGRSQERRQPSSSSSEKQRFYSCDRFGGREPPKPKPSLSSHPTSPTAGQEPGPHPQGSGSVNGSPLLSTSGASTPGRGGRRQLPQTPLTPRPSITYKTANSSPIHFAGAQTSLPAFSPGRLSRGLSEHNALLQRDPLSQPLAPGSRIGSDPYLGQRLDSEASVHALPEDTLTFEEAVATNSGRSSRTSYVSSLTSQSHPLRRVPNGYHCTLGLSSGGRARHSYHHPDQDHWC", "T3 sequence (Q02410 whole entry)": "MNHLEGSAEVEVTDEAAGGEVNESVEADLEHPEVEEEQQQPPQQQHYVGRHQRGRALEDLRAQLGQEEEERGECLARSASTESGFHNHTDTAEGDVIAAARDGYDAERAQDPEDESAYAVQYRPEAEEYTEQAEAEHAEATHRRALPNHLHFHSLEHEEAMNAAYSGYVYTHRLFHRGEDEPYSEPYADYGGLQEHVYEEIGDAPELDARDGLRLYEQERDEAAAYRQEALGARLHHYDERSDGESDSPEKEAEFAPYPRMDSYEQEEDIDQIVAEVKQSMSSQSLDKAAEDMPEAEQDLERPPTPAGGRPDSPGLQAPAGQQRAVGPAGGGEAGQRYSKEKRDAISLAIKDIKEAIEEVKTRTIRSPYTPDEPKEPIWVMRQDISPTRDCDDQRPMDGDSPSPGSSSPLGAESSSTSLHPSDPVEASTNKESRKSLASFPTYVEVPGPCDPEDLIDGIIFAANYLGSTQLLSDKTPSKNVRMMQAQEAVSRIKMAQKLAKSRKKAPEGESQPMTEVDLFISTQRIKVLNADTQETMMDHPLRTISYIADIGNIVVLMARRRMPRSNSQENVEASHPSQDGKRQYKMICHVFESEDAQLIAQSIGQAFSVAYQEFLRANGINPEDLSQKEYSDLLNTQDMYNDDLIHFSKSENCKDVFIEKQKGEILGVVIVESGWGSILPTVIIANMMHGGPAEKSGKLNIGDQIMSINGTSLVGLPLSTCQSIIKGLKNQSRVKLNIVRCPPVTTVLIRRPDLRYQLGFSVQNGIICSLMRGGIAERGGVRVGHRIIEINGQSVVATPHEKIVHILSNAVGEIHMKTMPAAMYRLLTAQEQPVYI", "assay_type": "protein assay"}, "[13]": {"molecular_target": "T3, Voltage-gated N-type calcium channel alpha-1B subunit/Amyloid beta A4 precursor protein-binding family A member 1", "experiment": "disruptors of Mint-PDZ/N-type channel peptide interaction – biochemical, HTRF, SAR follow-up (AID 2489)", "assay_type": "functional"}, "[14]": {"molecular_target": "T3, Voltage-gated N-type calcium channel alpha-1B subunit/Amyloid beta A4 precursor protein-binding family A member 1", "assay_type": "protein assay", "remark": "listed apart in the source"}, "[15]": {"molecular_target": "T3, Voltage-gated N-type calcium channel alpha-1B subunit/Amyloid beta A4 precursor protein-binding family A member 1", "experiment": "disruptors of Mint-PDZ/N-type channel peptide interaction – biochemical, HTRF, set 2, SAR follow-up (AID 434980)", "assay_type": "functional"}}, "note": "Activity calls are given as the source filed them.", "data": [{"molecule": "COc1cc(C2CC(=O)c3c([nH]c(C(=O)OCCOC(C)C)c3C)C2)cc(OC)c1OC", "note": "(stereo unspecified)", "values": [{"measurement": "EC50", "setting": "[1]", "value": "38.4 µM (active)"}, {"measurement": "AC50", "setting": "[2]", "value": "18 µM (active)"}, {"measurement": "EC50", "setting": "[3]", "value": "31 µM (active)"}]}, {"molecule": "O=C(CCl)N(CCCCNC(=O)C(F)(F)F)c1ccc([N+](=O)[O-])cc1", "values": [{"measurement": "IC50", "setting": "[4]", "value": "0.012 µM (active)"}]}, {"molecule": "O=C(c1coc(=O)c(Br)c1)N1CCOCC1", "values": [{"measurement": "AC50", "setting": "[5]", "value": "12.1 µM (active)"}, {"measurement": "IC50", "setting": "[6]", "value": "7.34 µM (active)"}, {"measurement": "IC50", "setting": "[7]", "value": "88.3 µM (active)"}, {"measurement": "IC50", "setting": "[8]", "value": "34 µM (active)"}]}, {"molecule": "NC(S)=NN=Cc1ccc(-c2ccc(S(=O)(=O)Nc3ncccn3)cc2)o1", "values": [{"measurement": "AC50", "setting": "[5]", "value": "15.3 µM (active)"}, {"measurement": "AC50", "setting": "[9]", "value": "97.3 µM (active)"}]}, {"molecule": "CCCCS(=O)(=O)n1cccc1/C=C(\\C#N)S(C)(=O)=O", "values": [{"measurement": "IC50", "setting": "[10]", "value": "> 20 µM (inactive)"}]}, {"molecule": "Cc1ccc(/C=C/C(=O)NCc2ccc(S(N)(=O)=O)cc2)o1", "values": [{"measurement": "IC50", "setting": "[11]", "value": "> 80 µM (inactive)"}, {"measurement": "IC50", "setting": "[12]", "value": "8.37 µM (active)"}, {"measurement": "IC50", "setting": "[13]", "value": "3.34 µM (active)"}, {"measurement": "IC50", "setting": "[14]", "value": "3.12 µM (active)"}, {"measurement": "IC50", "setting": "[15]", "value": "4.23 µM (active)"}]}]}
